Experimental data reported in patent US20260297542A1, “HERBICIDE RESISTANT PLANTS” (SYNGENTA CROP PROTECTION AG, priority 2023, published 2026).
Where a chain is given by its changes, count along the chain named.

How the values were obtained:
Test in all cases: E. coli hemG growth inhibition by herbicide, AtPPO1 variant
Assay type in all cases: cell-based
Details in all cases: read-out: percentage growth inhibition
[1] = biological target: T1, AtPPO1 Y362C (Arabidopsis thaliana, UniProt P55826, Y362C)
T1 construct: expressed in transfected cells; host or cells: E. coli BL21(DE3) hemG, pET24a plasmid
T1 sequence (P55826 35-537 Y362C): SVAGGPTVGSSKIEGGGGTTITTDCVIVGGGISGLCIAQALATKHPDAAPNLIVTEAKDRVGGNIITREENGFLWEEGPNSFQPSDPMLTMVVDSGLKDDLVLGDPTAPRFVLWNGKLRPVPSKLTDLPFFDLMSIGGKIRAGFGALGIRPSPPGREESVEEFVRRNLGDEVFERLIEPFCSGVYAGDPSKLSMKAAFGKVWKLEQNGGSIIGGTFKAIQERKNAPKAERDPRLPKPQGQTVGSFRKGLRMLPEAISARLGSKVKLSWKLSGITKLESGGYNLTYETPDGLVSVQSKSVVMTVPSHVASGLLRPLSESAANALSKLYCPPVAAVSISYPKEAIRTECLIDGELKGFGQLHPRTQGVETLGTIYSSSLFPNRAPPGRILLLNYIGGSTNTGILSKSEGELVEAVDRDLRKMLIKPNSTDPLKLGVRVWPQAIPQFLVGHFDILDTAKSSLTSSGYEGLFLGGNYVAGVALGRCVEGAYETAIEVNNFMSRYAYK
How it was run: (§1)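 Variant plasmids were transformed into hemG-null BL21(DE3) and precultured 24 h with hematin. Washed cells were diluted 1:100 into Terrific broth containing 0.1 mM IPTG and herbicide (6.25 ppm 0 or E; 0.78 ppm B) or DMSO. After 24 h at 37° C, OD600 gave percent inhibition.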

[2] = biological target: T2, AtPPO1 Y426T (Arabidopsis thaliana, UniProt P55826, Y426T)
T2 construct: expressed in transfected cells; host or cells: E. coli BL21(DE3) hemG (pET24a, T7 promoter)
T2 sequence (P55826 35-537 Y426T): T1 sequence (P55826 35-537 Y362C) with C328Y, Y392T
How it was run: as §1

[3] = biological target: T3, AtPPO1 V127L (Arabidopsis thaliana, UniProt P55826, V127L)
T3 construct: expressed in transfected cells; host or cells: E. coli BL21(DE3) hemG (hemG replaced by CmR), pET24a plasmid
T3 sequence (P55826 35-537 V127L): T1 sequence (P55826 35-537 Y362C) with V93L, C328Y
How it was run: as §1

[4] = biological target: T4, AtPPO1 L479N (Arabidopsis thaliana, UniProt P55826, L479N)
T4 construct: expressed in transfected cells; host or cells: E. coli BL21(DE3) hemG, pET24a plasmid
T4 sequence (P55826 35-537 L479N): T1 sequence (P55826 35-537 Y362C) with C328Y, L445N
How it was run: as §1

SMILES | inhibition at 6.25 ppm [1] | inhibition at 6.25 ppm [2] | inhibition at 6.25 ppm [3] | inhibition at 6.25 ppm [4] | inhibition at 0.78 ppm [1] | inhibition at 0.78 ppm [2] | inhibition at 0.78 ppm [3] | inhibition at 0.78 ppm [4]
CC(C)N(C)S(=O)(=O)NC(=O)c1cc(-n2c(=O)cc(C(F)(F)F)n(C)c2=O)c(F)cc1Cl [Herbicide E, saflufenacil] | 58% | 11% | 65% | 31% |  |  |  | 
C#CCN1C(=O)C(F)(F)Oc2cc(F)c(-n3c(=O)n(C)c(=S)n(C)c3=O)cc21 [Herbicide B, trifludimoxazin] |  |  |  |  | 37% | 8% | 31% | 23%
CCOC(=O)[C@]1(C)CC(c2cc(-n3c(=O)n(C)c(=S)n(C)c3=O)c(F)cc2Cl)=NO1 [Herbicide D, ethyl (5S)-3-[2-chloro-5-(3,5-dimethyl-2,6-dioxo-4-thioxo-1,3,5-triazinan-1-yl)-4-fluoro-phenyl]-5-methyl-4H-isoxazole-5-carboxylate] | 43% | 12% | 29% | 3% |  |  |  | 
